Assay results: ChEMBL document CHEMBL4425082, “Antimalarial Chemotherapy: Natural Product Inspired Development of Preclinical and Clinical Candidates with Diverse Mechanisms of Action” (J Med Chem, 2016)

Key:
Plasmodium berghei [1] = test: Antimalarial activity against Plasmodium berghei infected in po dosed mouse erythrocyte administered qd for 8 days by Giemsa staining based microscopic analysis; format: functional; conditions: 192 h
[2] = Therapeutic index, ratio of IC50 for mouse J774 cells to IC50 chloroquine-resistant Plasmodium falciparum W2; format: toxicity; conditions: read-out: Ratio IC50
[3] = Therapeutic index, ratio of IC50 for mouse/rat NG108 cells to IC50 chloroquine-resistant Plasmodium falciparum W2; format: toxicity; conditions: read-out: Ratio IC50
Plasmodium falciparum [4] = test: Antimalarial activity against chloroquine-resistant Plasmodium falciparum W2 by [3H]-hypoxanthine incorporation assay; format: functional, organism-based
Plasmodium falciparum [5] = test: Antimalarial activity against Plasmodium falciparum 3D7; format: functional, organism-based
[6] = Inhibition of Plasmodium falciparum cytochrome bc1 expressed in HEK293 cells by spectrophotometric analysis; format: cell-based
Plasmodium yoelii = test: Antimalarial activity against blood stage Plasmodium yoelii infected in mouse administered qd through oral gavage for 4 days; format: functional; conditions: 96 h
Plasmodium falciparum [7] = test: Antimalarial activity against atovaquone-resistant Plasmodium falciparum TM90C2B; format: functional, organism-based
[8] = Inhibition of Plasmodium falciparum NDH2 expressed in HEK293 cells by spectrophotometric analysis; format: cell-based
[9] = Oral bioavailability in rat at 3 mg/kg; format: ADME, organism-based; conditions: in vivo
Plasmodium berghei [10] = test: Antimalarial activity against GFP-transfected Plasmodium berghei ANKA infected in mouse assessed as reduction in parasitemia at 30 mg/kg, po administered on day 1 post infection measured on day 3 post infection; format: functional; parameters: scale not given: the % may be the effect or the level left
Plasmodium falciparum [11] = test: Antimalarial activity against Plasmodium falciparum Dd2 assessed as reduction in parasite viability by [3H]-hypoxanthine incorporation assay; format: functional, organism-based
Plasmodium vinckei [12] = test: Antimalarial activity against Plasmodium vinckei infected in po dosed mouse assessed as reduction in parasitemia administered tid by 4-day suppression test; format: functional; conditions: 96 h
Plasmodium vinckei [13] = test: Antimalarial activity against Plasmodium vinckei infected in ip dosed mouse assessed as reduction in parasitemia administered tid by 4-day suppression test; format: functional; conditions: 96 h
[14] = Oral bioavailability in rat; format: ADME, organism-based; conditions: in vivo
Plasmodium berghei [15] = test: Antimalarial activity against blood stage Plasmodium berghei infected in mouse administered qd through oral gavage for 4 days; conditions: 96 h
Plasmodium falciparum [16] = test: Antimalarial activity against Plasmodium falciparum 3D7 after 96 hrs; format: functional, organism-based; conditions: 3D7, 96 h
Plasmodium falciparum [17] = test: Antimalarial activity against Plasmodium falciparum 3D7 after 48 hrs; format: functional, organism-based; conditions: 3D7, 48 h
Plasmodium falciparum [18] = test: Antimalarial activity against Plasmodium falciparum W2 after 48 hrs; format: functional, organism-based; conditions: W2, 48 h
Plasmodium falciparum [19] = test: Antimalarial activity against Plasmodium falciparum FCR 3TC after 48 hrs; format: functional, organism-based
[20] = Half life in human; format: ADME

SMILES: O=C(C[C@H]1NCCC[C@@H]1O)Cn1cnc2ccccc2c1=O
- ED50 (Plasmodium berghei [1]): 2.3 mg/kg
- selectivity ratio [2]: 3
- selectivity ratio [3]: 3
- IC50 (Plasmodium falciparum [4]): 2.5 nM

SMILES: O=C1C(O)=C([C@H]2CC[C@H](c3ccc(Cl)cc3)CC2)C(=O)c2ccccc21 [ATOVAQUONE]
- IC50 (Plasmodium falciparum [5]): 0.4 nM
- IC50 [6]: 2 nM
- ED50 (Plasmodium yoelii): 0.02 mg/kg
- ED90 (Plasmodium yoelii): 0.04 mg/kg
- IC50 (Plasmodium falciparum [7]): > 10000 nM
- IC50 [8]: > 10000 nM

SMILES: CC(C)(N)CNC(=O)C[C@H]1CC[C@]2(CC1)OO[C@]1(O2)C2CC3CC(C2)CC1C3 [OZ277]
- bioavailability [9]: 13%
- Activity (Plasmodium berghei [10]): 99%

SMILES: CC(=O)N(O)CCCP(=O)(O)O [FR-900098]
- IC50 (Plasmodium falciparum [11]): 90 nM

SMILES: O=CN(O)CCCP(=O)(O)O [FOSMIDOMYCIN]
- IC50 (Plasmodium falciparum [11]): 290 nM
- ED90 (Plasmodium vinckei [12]): 20 mg/kg
- ED90 (Plasmodium vinckei [13]): 5 mg/kg
- bioavailability [14]: 30%

SMILES: Cc1c(-c2ccc(-c3ccc(OC(F)(F)F)cc3)nc2)[nH]c2ccccc2c1=O
- ED50 (Plasmodium berghei [15]): 1.8 mg/kg
- ED90 (Plasmodium berghei [15]): 4.7 mg/kg
- IC50 [6]: 15 nM
- IC50 [8]: 14 nM

SMILES: CCC[C@@H]1C[C@@H](C(=O)N[C@@H]([C@H]2O[C@H](SC)[C@H](O)[C@@H](O)[C@H]2O)[C@H](C)Cl)N(C)C1 [CLINDAMYCIN]
- IC50 (Plasmodium falciparum [16]): 450 nM
- IC50 (Plasmodium falciparum [17]): > 10 µM
- IC50 (Plasmodium falciparum [18]): > 10 µM

SMILES: c1cc([C@H]2CC[C@]3(CC2)OO[C@]2(O3)C3CC4CC(C3)CC2C4)ccc1OCCN1CCOCC1 [ARTEFENOMEL]
- bioavailability [9]: 76%

SMILES: CC[C@H]1OC(=O)[C@H](C)[C@@H](O[C@H]2C[C@@](C)(OC)[C@@H](O)[C@H](C)O2)[C@H](C)[C@@H](O[C@@H]2O[C@H](C)C[C@H](N(C)C)[C@H]2O)[C@](C)(O)C[C@@H](C)C(=O)[C@H](C)[C@@H](O)[C@]1(C)O [ERYTHROMYCIN]
- IC50 (Plasmodium falciparum [19]): 68 µM

SMILES: CC[C@H]1OC(=O)[C@H](C)[C@@H](O[C@H]2C[C@@](C)(OC)[C@@H](O)[C@H](C)O2)[C@H](C)[C@@H](O[C@@H]2O[C@H](C)C[C@H](N(C)C)[C@H]2O)[C@](C)(O)C[C@@H](C)CN(C)[C@H](C)[C@@H](O)[C@]1(C)O [AZITHROMYCIN]
- half-life [20]: 3.08 days
- IC50 (Plasmodium falciparum [19]): 6.5 µM

SMILES: COc1cc2[nH]c(C)c(-c3ccc(Oc4ccc(OC(F)(F)F)cc4)cc3)c(=O)c2cc1Cl
- IC50 (Plasmodium falciparum [5]): 5 nM
- ED50 (Plasmodium yoelii): 0.1 mg/kg
- ED90 (Plasmodium yoelii): 0.15 mg/kg
- IC50 (Plasmodium falciparum [7]): 3 nM
